One assay relates to Plasmodium falciparum. Description: Plasmodium falciparum growth inhibition in human red blood cells (parasite lactate dehydrogenase assay). It is filed as cell-based. The following applies: for IC50: Plasmodium falciparum, Erythrocyte, at 48 hours, P. falciparum in human red blood cells, read-out: 50% inhibitory concentration (IC50) for parasite growth. As to the method: Plasmodium falciparum was maintained in human red blood cells and the inhibitory effects of racemic thiolactomycin, or compound C on its growth was measured, employing assay techniques as described by Makkler, M. T., Ries, J. M., Williams, J. A., Bancroft, J. E., Piper, R. C., Gibbins, B. L. and Hinrichs, D. J., Parasite lactate dehydrogenase as an assay for Plasmodium falciparum drug sensitivity. Am. J. Trop. Med. Hyg. 48, 739-41 (1993).

Assay [1] deals with fatty acid synthesis in Trypanosoma brucei. Particulars: Morita et al., Science 288: 140-143 (2000); read-out: IC50 for inhibition of fatty acid synthesis in Trypanosoma brucei; cited from earlier work.
The subject of assay [2] is Eimeria tenella parasites. As to the kind of experiment: Eimeria tenella invasion of MDBK cells after preincubation of parasites with compound. It is filed as cell-based. As to the method: (§1) Compound C was tested against Eimeria tenella parasites in two separate assay procedures, as described (i) in Inhibition of the development of Eimeria tenella in cultured bovine kidney cells by a soluble factor produced by peripheral blood lymphocytes from immune chickens, J. M. Bumstead, S. J. Topham, F. M. Tomley, Parasitology, 117.39-47 (1998) and (ii) Eimeria tenella: Parasite-specific incorporation of 3H Uracil as a quantitative measure of intracellular development, Schmatz, D. M., Crane, M. S., is Murray, P. K., Journal of Protozology (1986) 33:109-114.
Preincubation of compound C with parasites caused a significant reduction in invasion of Madin-Darby Bovine Kidney (MDBK) cells at concentrations of 10 μM and above.

Assay [3] relates to Eimeria tenella parasites. Description: Eimeria tenella uracil uptake in infected MDBK cells. It is filed as cell-based. Particulars: uracil uptake as indicator of parasite viability. As to the method: as §1
In the second assay using infected MDBK cells, compound C caused a significant decrease in the uptake of uracil by the parasites (a recognised indicator of parasite viability) at concentrations greater than 5 μM.

Molecules are shown by their SMILES.

For `C=C/C(C)=C/C1(C)SC(=O)C(C)=C1O` (racemic) [Racemic thiolactomycin, Thiolactomycin, reference compound], the IC50 in the assay on Plasmodium falciparum was 40 µM; in assay [1], approximately 150 µM.

Turning to `CC(C)=CCC/C(C)=C/CC1(C)SC(=O)C(C)=C1O` (stereo not drawn) [Compound C], the IC50 with Plasmodium falciparum was 0.5 µM. Also, the “times more active than racemic thiolactomycin in inhibiting growth of Plasmodium falciparum” value in the assay with Plasmodium falciparum (ratio of IC50 values at 48 hours) is on record as “approximately 80 times”. The “concentrations causing a significant reduction in invasion of Madin-Darby Bovine Kidney (MDBK) cells” value in assay [2] is not below 10 µM. The “concentrations causing a significant decrease in the uptake of uracil by the parasites” value in assay [3] is on record as “greater than 5 μM”.

The values above are taken from patent publication US20030171420A1, “Compounds and compositions for use in ingibting endoparasitic fatty acid biosynthesis” (priority 2000, published 2003).
